Measurements published in ChEMBL document CHEMBL5137000, “Discovery of a novel and potent inhibitor with differential species-specific effects against NLRP3 and AIM2 inflammasome-dependent pyroptosis” (Eur J Med Chem, 2022).
Activity calls are given as the source filed them. No cut-off for these calls is given here.

Target: NACHT, LRR and PYD domains-containing protein 3 (Homo sapiens) (UniProt Q96P20)
Assay: Inhibition of NLRP3 inflammasome activation in LPS-primed human THP-1 cells assessed as reduction in nigericin-induced IL-1beta release in supernatant pretreated for 30 mins followed by nigericin stimulation and measured after 30 min by ELISA
Format: cell-based
Settings: time 60.0 min

Sequence of NACHT, LRR and PYD domains-containing protein 3 (Homo sapiens) (Q96P20 whole entry, the tested form may be a part): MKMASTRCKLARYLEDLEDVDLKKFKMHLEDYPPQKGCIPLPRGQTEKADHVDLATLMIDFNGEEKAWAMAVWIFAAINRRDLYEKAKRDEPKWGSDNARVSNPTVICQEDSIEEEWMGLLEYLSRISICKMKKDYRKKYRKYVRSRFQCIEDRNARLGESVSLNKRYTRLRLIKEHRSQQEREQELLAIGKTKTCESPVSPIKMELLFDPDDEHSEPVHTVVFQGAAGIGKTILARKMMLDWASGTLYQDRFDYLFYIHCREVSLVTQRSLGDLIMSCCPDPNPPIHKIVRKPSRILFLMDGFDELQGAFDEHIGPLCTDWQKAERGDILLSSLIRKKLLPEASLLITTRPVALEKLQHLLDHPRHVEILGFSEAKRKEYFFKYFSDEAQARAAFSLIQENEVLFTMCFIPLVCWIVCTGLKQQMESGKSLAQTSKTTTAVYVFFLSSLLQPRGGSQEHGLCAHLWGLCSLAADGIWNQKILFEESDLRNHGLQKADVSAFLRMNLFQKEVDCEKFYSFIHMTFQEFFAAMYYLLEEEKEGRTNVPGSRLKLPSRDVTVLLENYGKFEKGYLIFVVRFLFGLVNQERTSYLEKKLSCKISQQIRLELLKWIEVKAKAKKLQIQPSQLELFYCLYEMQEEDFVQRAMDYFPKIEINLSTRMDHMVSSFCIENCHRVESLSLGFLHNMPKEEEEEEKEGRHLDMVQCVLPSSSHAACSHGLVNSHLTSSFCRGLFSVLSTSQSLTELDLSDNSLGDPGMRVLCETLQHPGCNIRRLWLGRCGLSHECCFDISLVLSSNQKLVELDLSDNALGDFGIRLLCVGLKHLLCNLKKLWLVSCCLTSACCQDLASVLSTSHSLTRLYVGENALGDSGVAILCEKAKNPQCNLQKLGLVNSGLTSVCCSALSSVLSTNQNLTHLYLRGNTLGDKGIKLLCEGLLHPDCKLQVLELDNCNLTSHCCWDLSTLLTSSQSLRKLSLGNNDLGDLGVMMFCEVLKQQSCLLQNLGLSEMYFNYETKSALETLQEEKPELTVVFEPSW

## COc1ccc(CC(=O)Nc2cccc(B(O)O)c2)cc1
  inhibition: Active
